Results reported in US9738634B2, “Heterocyclic amide compound and herbicide” (SYNGENTA PARTICIPATIONS AG, priority 2013, dated 2017).

Legend:
Type in all cases: in vivo
[1] = system: Indian mallow; assay: Test Example 3: weedkilling efficacy through soil treatment; K: Indian mallow; conditions: treatment dosage 315 g/ha
Summary of the method: (§1)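 Crop and weed responses were judged three weeks after a uniform surface spray of the water-diluted emulsion at the given g/ha rate. Seeds sat beneath about 1.5 cm of sterilized diluvial soil, and boxes stood in a greenhouse at 25 to 30° C.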

[2] = system: wheat; assay: Test Example 4: foliar treatment, effect on crop; e: wheat; conditions: treatment dosage 315 g/ha
Summary of the method: (§2)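 Seeds are spot-sown into sterilized diluvial soil and covered with about 1.5 cm of soil. After 14 days' greenhouse growth at 25 to 30° C, plants are sprayed on stems and leaves with diluted emulsion at the stated g/ha rate, then scored at 3 weeks.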

[3] = system: wild oat; assay: Test Example 3: weedkilling efficacy through soil treatment; G: wild oat; conditions: treatment dosage 315 g/ha
Summary of the method: as §1

[4] = system: chickweed; assay: Test Example 3: weedkilling efficacy through soil treatment; N: chickweed; conditions: treatment dosage 315 g/ha
Summary of the method: as §1

[5] = system: barnyard grass; assay: Test Example 2: weedkilling efficacy, growth period weed treatment in the submerged state; A: barnyard grass; conditions: treatment dosage 252 g/ha
Summary of the method: (§3)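 Weeds treated at the 1-2 leaf stage by application of diluted emulsion onto floodwater (4 cm depth, alluvial soil) at specified g/ha. Grown in greenhouse at 25 to 30° C; herbicidal effect rated three weeks after treatment.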

[6] = system: bulrush; assay: Test Example 1: weedkilling efficacy, preemergent weed treatment in the submerged state; B: bulrush; conditions: treatment dosage 252 g/ha
Summary of the method: (§4)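 Pots of alluvial soil were flooded to a 4 cm depth. Mixed weed seeds were sown and 2.5 leaf-stage rice seedlings transplanted. On sowing day, water-diluted emulsion was applied to the water surface (dose in g/ha). After 3 weeks at 25–30 °C, effects were rated.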

[7] = system: beet; assay: Test Example 4: foliar treatment, effect on crop; f: beet; conditions: treatment dosage 315 g/ha
Summary of the method: as §2

[8] = system: Italian ryegrass; assay: Test Example 4: weedkilling efficacy by foliar treatment; I: Italian ryegrass; conditions: treatment dosage 315 g/ha
Summary of the method: as §2

[9] = system: black-grass; assay: Test Example 3: weedkilling efficacy through soil treatment; H: black-grass; conditions: treatment dosage 315 g/ha
Summary of the method: as §1

[10] = system: barnyard grass; assay: Test Example 1: weedkilling efficacy, preemergent weed treatment in the submerged state; A: barnyard grass; conditions: treatment dosage 252 g/ha
Summary of the method: as §4

[11] = system: oval-leafed pondweed; assay: Test Example 1: weedkilling efficacy, preemergent weed treatment in the submerged state; C: oval-leafed pondweed; conditions: treatment dosage 252 g/ha
Summary of the method: as §4

[12] = system: crabgrass; assay: Test Example 4: weedkilling efficacy by foliar treatment; D: crabgrass; conditions: treatment dosage 315 g/ha
Summary of the method: as §2

[13] = system: corn; assay: Test Example 3: soil treatment, effect on crop; c: corn; conditions: treatment dosage 315 g/ha
Summary of the method: as §1

[14] = system: crabgrass; assay: Test Example 3: weedkilling efficacy through soil treatment; D: crabgrass; conditions: treatment dosage 315 g/ha
Summary of the method: as §1

[15] = system: Indian mallow; assay: Test Example 4: weedkilling efficacy by foliar treatment; K: Indian mallow; conditions: treatment dosage 315 g/ha
Summary of the method: as §2

[16] = system: Italian ryegrass; assay: Test Example 3: weedkilling efficacy through soil treatment; I: Italian ryegrass; conditions: treatment dosage 315 g/ha
Summary of the method: as §1

[17] = system: redroot pigweed; assay: Test Example 3: weedkilling efficacy through soil treatment; L: redroot pigweed; conditions: treatment dosage 315 g/ha
Summary of the method: as §1

[18] = system: catchweed; assay: Test Example 4: weedkilling efficacy by foliar treatment; O: catchweed; conditions: treatment dosage 315 g/ha
Summary of the method: as §2

[19] = system: fig-leafed goosefoot; assay: Test Example 3: weedkilling efficacy through soil treatment; M: fig-leafed goosefoot; conditions: treatment dosage 315 g/ha
Summary of the method: as §1

[20] = system: bulrush; assay: Test Example 2: weedkilling efficacy, growth period weed treatment in the submerged state; B: bulrush; conditions: treatment dosage 252 g/ha
Summary of the method: as §3

[21] = system: birds-eye speedwell; assay: Test Example 4: weedkilling efficacy by foliar treatment; p: birds-eye speedwell; conditions: treatment dosage 315 g/ha
Summary of the method: as §2

[22] = system: directly sown rice; assay: Test Example 4: foliar treatment, effect on crop; b: directly sown rice; conditions: treatment dosage 315 g/ha
Summary of the method: as §2

[23] = system: redroot pigweed; assay: Test Example 4: weedkilling efficacy by foliar treatment; L: redroot pigweed; conditions: treatment dosage 315 g/ha
Summary of the method: as §2

[24] = system: green foxtail; assay: Test Example 3: weedkilling efficacy through soil treatment; E: green foxtail; conditions: treatment dosage 315 g/ha
Summary of the method: as §1

[25] = system: fig-leafed goosefoot; assay: Test Example 4: weedkilling efficacy by foliar treatment; M: fig-leafed goosefoot; conditions: treatment dosage 315 g/ha
Summary of the method: as §2

[26] = system: corn; assay: Test Example 4: foliar treatment, effect on crop; c: corn; conditions: treatment dosage 315 g/ha
Summary of the method: as §2

[27] = system: black-grass; assay: Test Example 4: weedkilling efficacy by foliar treatment; H: black-grass; conditions: treatment dosage 315 g/ha
Summary of the method: as §2

[28] = system: transplanted rice; assay: Test Example 1: preemergent weed treatment in the submerged state, effect on crop; a: transplanted rice; conditions: treatment dosage 252 g/ha
Summary of the method: as §4

[29] = system: wild oat; assay: Test Example 4: weedkilling efficacy by foliar treatment; G: wild oat; conditions: treatment dosage 315 g/ha
Summary of the method: as §2

[30] = system: soybean; assay: Test Example 3: soil treatment, effect on crop; d: soybean; conditions: treatment dosage 315 g/ha
Summary of the method: as §1

[31] = system: directly sown rice; assay: Test Example 3: soil treatment, effect on crop; b: directly sown rice; conditions: treatment dosage 315 g/ha
Summary of the method: as §1

[32] = system: soybean; assay: Test Example 4: foliar treatment, effect on crop; d: soybean; conditions: treatment dosage 315 g/ha
Summary of the method: as §2

[33] = system: chickweed; assay: Test Example 4: weedkilling efficacy by foliar treatment; N: chickweed; conditions: treatment dosage 315 g/ha
Summary of the method: as §2

[34] = system: oval-leafed pondweed; assay: Test Example 2: weedkilling efficacy, growth period weed treatment in the submerged state; C: oval-leafed pondweed; conditions: treatment dosage 252 g/ha
Summary of the method: as §3

[35] = system: beet; assay: Test Example 3: soil treatment, effect on crop; f: beet; conditions: treatment dosage 315 g/ha
Summary of the method: as §1

[36] = system: green foxtail; assay: Test Example 4: weedkilling efficacy by foliar treatment; E: green foxtail; conditions: treatment dosage 315 g/ha
Summary of the method: as §2

[37] = system: wheat; assay: Test Example 3: soil treatment, effect on crop; e: wheat; conditions: treatment dosage 315 g/ha
Summary of the method: as §1

Row | Structure (SMILES) | K (Indian mallow) weedkilling efficacy grade [1] | e (wheat) effect on crop grade [2] | G (wild oat) weedkilling efficacy grade [3] | N (chickweed) weedkilling efficacy grade [4] | A (barnyard grass) weedkilling efficacy grade [5] | B (bulrush) weedkilling efficacy grade [6] | f (beet) effect on crop grade [7] | I (Italian ryegrass) weedkilling efficacy grade [8] | H (black-grass) weedkilling efficacy grade [9] | A (barnyard grass) weedkilling efficacy grade [10] | C (oval-leafed pondweed) weedkilling efficacy grade [11] | D (crabgrass) weedkilling efficacy grade [12] | c (corn) effect on crop grade [13] | D (crabgrass) weedkilling efficacy grade [14] | K (Indian mallow) weedkilling efficacy grade [15] | I (Italian ryegrass) weedkilling efficacy grade [16] | L (redroot pigweed) weedkilling efficacy grade [17] | O (catchweed) weedkilling efficacy grade [18] | M (fig-leafed goosefoot) weedkilling efficacy grade [19] | B (bulrush) weedkilling efficacy grade [20] | further results
1 | CC1=C(c2ccccc2)C(=O)N(C(C)(C)C(=O)Nc2cc(Cl)cc(Cl)n2)CO1 [B-2-34] | 5 (weed kill ratio 90% or more, (practically complete withering)) | 1 (weed kill ratio 5% or more, less than 20%) | 5 (weed kill ratio 90% or more, (practically complete withering)) | 5 (weed kill ratio 90% or more, (practically complete withering)) | 5 (weed kill ratio 90% or more, (practically complete withering)) | 5 (weed kill ratio 90% or more, (practically complete withering)) | 4 (weed kill ratio 70% or more, less than 90%) | 5 (weed kill ratio 90% or more, (practically complete withering)) | 5 (weed kill ratio 90% or more, (practically complete withering)) | 5 (weed kill ratio 90% or more, (practically complete withering)) | 5 (weed kill ratio 90% or more, (practically complete withering)) | 5 (weed kill ratio 90% or more, (practically complete withering)) | 2 (weed kill ratio 20% or more, less than 40%) | 5 (weed kill ratio 90% or more, (practically complete withering)) | 5 (weed kill ratio 90% or more, (practically complete withering)) | 5 (weed kill ratio 90% or more, (practically complete withering)) | 5 (weed kill ratio 90% or more, (practically complete withering)) | 0 (weed kill ratio 5% or less (practically no effect)) | 4 (weed kill ratio 70% or more, less than 90%) | 5 (weed kill ratio 90% or more, (practically complete withering)) | P (birds-eye speedwell) weedkilling efficacy grade [21]: 3 (weed kill ratio 40% or more, less than 70%); b (directly sown rice) effect on crop grade [22]: 5 (weed kill ratio 90% or more, (practically complete withering)); L (redroot pigweed) weedkilling efficacy grade [23]: 4 (weed kill ratio 70% or more, less than 90%); E (green foxtail) weedkilling efficacy grade [24]: 5 (weed kill ratio 90% or more, (practically complete withering)); M (fig-leafed goosefoot) weedkilling efficacy grade [25]: 3 (weed kill ratio 40% or more, less than 70%); c (corn) effect on crop grade [26]: 3 (weed kill ratio 40% or more, less than 70%); H (black-grass) weedkilling efficacy grade [27]: 5 (weed kill ratio 90% or more, (practically complete withering)); a (transplanted rice) effect on crop grade [28]: 0 (weed kill ratio 5% or less (practically no effect)); G (wild oat) weedkilling efficacy grade [29]: 5 (weed kill ratio 90% or more, (practically complete withering)); d (soybean) effect on crop grade [30]: 1 (weed kill ratio 5% or more, less than 20%); b (directly sown rice) effect on crop grade [31]: 5 (weed kill ratio 90% or more, (practically complete withering)); d (soybean) effect on crop grade [32]: 5 (weed kill ratio 90% or more, (practically complete withering)); N (chickweed) weedkilling efficacy grade [33]: 3 (weed kill ratio 40% or more, less than 70%); C (oval-leafed pondweed) weedkilling efficacy grade [34]: 5 (weed kill ratio 90% or more, (practically complete withering)); f (beet) effect on crop grade [35]: 5 (weed kill ratio 90% or more, (practically complete withering)); E (green foxtail) weedkilling efficacy grade [36]: 5 (weed kill ratio 90% or more, (practically complete withering)); e (wheat) effect on crop grade [37]: 1 (weed kill ratio 5% or more, less than 20%)
2 | CC1=C(c2ccccc2)C(=O)N(C(C)(C)C(=O)Nc2ccnc(Cl)c2)CO1 [B-4-03] | 3 (weed kill ratio 40% or more, less than 70%) | 0 (weed kill ratio 5% or less (practically no effect)) | 4 (weed kill ratio 70% or more, less than 90%) | 3 (weed kill ratio 40% or more, less than 70%) | 4 (weed kill ratio 70% or more, less than 90%) | 5 (weed kill ratio 90% or more, (practically complete withering)) | 4 (weed kill ratio 70% or more, less than 90%) | 5 (weed kill ratio 90% or more, (practically complete withering)) | 5 (weed kill ratio 90% or more, (practically complete withering)) | 5 (weed kill ratio 90% or more, (practically complete withering)) | 5 (weed kill ratio 90% or more, (practically complete withering)) | 5 (weed kill ratio 90% or more, (practically complete withering)) | 2 (weed kill ratio 20% or more, less than 40%) | 5 (weed kill ratio 90% or more, (practically complete withering)) | 4 (weed kill ratio 70% or more, less than 90%) | 5 (weed kill ratio 90% or more, (practically complete withering)) | 5 (weed kill ratio 90% or more, (practically complete withering)) | 5 (weed kill ratio 90% or more, (practically complete withering)) | 5 (weed kill ratio 90% or more, (practically complete withering)) | 5 (weed kill ratio 90% or more, (practically complete withering)) | P (birds-eye speedwell) weedkilling efficacy grade [21]: 4 (weed kill ratio 70% or more, less than 90%); b (directly sown rice) effect on crop grade [22]: 5 (weed kill ratio 90% or more, (practically complete withering)); L (redroot pigweed) weedkilling efficacy grade [23]: 3 (weed kill ratio 40% or more, less than 70%); E (green foxtail) weedkilling efficacy grade [24]: 5 (weed kill ratio 90% or more, (practically complete withering)); M (fig-leafed goosefoot) weedkilling efficacy grade [25]: 3 (weed kill ratio 40% or more, less than 70%); c (corn) effect on crop grade [26]: 4 (weed kill ratio 70% or more, less than 90%); H (black-grass) weedkilling efficacy grade [27]: 5 (weed kill ratio 90% or more, (practically complete withering)); a (transplanted rice) effect on crop grade [28]: 4 (weed kill ratio 70% or more, less than 90%); G (wild oat) weedkilling efficacy grade [29]: 5 (weed kill ratio 90% or more, (practically complete withering)); d (soybean) effect on crop grade [30]: 3 (weed kill ratio 40% or more, less than 70%); d (soybean) effect on crop grade [32]: 4 (weed kill ratio 70% or more, less than 90%); N (chickweed) weedkilling efficacy grade [33]: 1 (weed kill ratio 5% or more, less than 20%); C (oval-leafed pondweed) weedkilling efficacy grade [34]: 4 (weed kill ratio 70% or more, less than 90%); f (beet) effect on crop grade [35]: 4 (weed kill ratio 70% or more, less than 90%); E (green foxtail) weedkilling efficacy grade [36]: 5 (weed kill ratio 90% or more, (practically complete withering)); e (wheat) effect on crop grade [37]: 1 (weed kill ratio 5% or more, less than 20%)
